The values below come from patent US6670400B1, “Phenoxyethylamine derivatives having high affinity for the 5-HT1A receptor, preparation thereof, use thereof as drugs, and pharmaceutical compositions containing said derivatives” (Societe de Conseils de Recherches et D'Applications …, priority 1995, dated 2003).

Each structure is given as a SMILES string. pKi: −log10 of the molar value. Structures can show the parent of a compound that is named as a salt.

Data set [1] relates to vomiting induced by cis-platinum. Description: Anti-emetic activity: inhibition of vomiting induced by cis-platinum in ferrets. It counts as in vivo, ferret. Conditions: 30 minutes before cis-platinum 30 mg/kg i.v., ferrets observed six hours. How it is done: Inhibition induced by cis-platinum is evaluated in ferrets using a modification of the protocol described by Barnes et al. (J. M. Barnes, N. M. Barnes, B. Costall, R. J. Naylor, F. D. Tattersall, Neuropharmacology, 27[8], 783 [1988]). Thus, albino ferrets or European polecats of both sexes weighing between 0.5 kg and 1.5 kg are put under anesthesia with pentobarbitone (30-40 mg/kg i.p.) and a polyethylene injection tube is inserted into the left jugular vein. Two days later, the compounds being tested are administered i.v. 30 minutes before cis-platinum (30 mg/kg i.v.). The animals are observed for six hours and the number of vomitings is recorded. A control group is included for each experiment.

For the next data set, the target named is T1, 5-HT1A receptor (Rattus norvegicus, UniProt P19327).
T1 construct: Rat cerebral cortex membranes (10 mg by weight, moistened, per ml) are incubated with [3H]8-OH-DPAT (1 nM); from tissue; host or cells: rat cerebral cortex membranes (male Sprague Dawley rats)
T1 sequence (P19327 1-422): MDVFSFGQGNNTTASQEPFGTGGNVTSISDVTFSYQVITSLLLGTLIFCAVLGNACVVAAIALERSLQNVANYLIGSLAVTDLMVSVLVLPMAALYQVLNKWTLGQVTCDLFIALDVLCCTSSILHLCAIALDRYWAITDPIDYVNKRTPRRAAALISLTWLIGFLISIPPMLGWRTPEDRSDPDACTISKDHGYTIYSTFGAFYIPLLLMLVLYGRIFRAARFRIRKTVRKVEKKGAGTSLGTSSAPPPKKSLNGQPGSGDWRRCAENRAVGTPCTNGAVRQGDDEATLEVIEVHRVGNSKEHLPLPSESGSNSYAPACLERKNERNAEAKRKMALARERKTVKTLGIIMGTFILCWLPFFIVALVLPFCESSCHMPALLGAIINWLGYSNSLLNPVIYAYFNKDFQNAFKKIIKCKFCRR
Description: Affinity for the 5-HT1A receptor: inhibition of [3H]8-OH-DPAT binding to rat cerebral cortex membranes. The following applies: [3H]8-OH-DPAT 1 nM, 30 min at 25 deg. C.

Another data set deals with gastric acid secretion. Description: Gastric anti-secretion activity, pylorus-ligated rat (Shay method). Conditions: intraduodenal, male Sprague Dawley rats, pylorus ligature, 4 hours. It counts as in vivo. How it is done:
The gastric anti-secretion activity of the compounds of the invention was tested according to the method described by Shay et al. (H. Shay, D. C. Sun, M. Gruenstein, Gastroenterology, 26, 906 [1954]). Thus, male Sprague Dawley rats weighing around 200 g with free access to water are made to fast 24 hours before the experiments. Ligatures are made on the pylora under ether anesthesia and the medications to be tested are simultaneously administered either by the intraperitoneal route (i.p.) or by intraduodenal route (i.d.). The abdomen is closed again and the animals are sacrificed after four hours. The gastric secretion is recovered and centrifuged at 1,500 g for 15 minutes; the volume of the supernatant is measured and the acidity is determined by automatic titration of 0.05 N sodium hydroxide. A control group is included for each experiment.
The dose necessery for 50% inhibition (ED50) of the acid secretion (X concentration of hydrochloric acid by volume) is calculated using the method described by Litchfield and Wilcoxon (J. T. Litchfield, F. A. Wilcoxon, J. Pharmacol., 96, 99 [1949]). The results obtained for compounds pounds representative of the invention are given in Table 3 and compared with the clinically used reference compounds: Pirenzepine (anti-cholinergic), Ranitidine (antagonist of histaminergic H2 receptors) and Omeprazole (proton pump inhibitor).

In another data set the test system is intestinal transit. Description: Effect on intestinal transit (charcoal meal) in rats. Conditions: 30 minutes before charcoal, sacrificed after 15 minutes. It counts as in vivo, rat. How it is done:
A compound of the invention was tested to determine its effect on the intestinal transit according to the method described by A. F. Green (Br. J. Pharmacol., 14, 26-34 [1959]). To male Sprague Dawley rats weighing approximately 200 g before being made to fast, there was administered (p.o.) a meal comprised of charcoal (10 g) and gum arabic (2.5 g) dissolved in 100 ml of distilled water. The animals were sacrificed after 15 minutes and the charcoal transit time was measured.
The product to be tested was administered (s.c.) 30 minutes before the administration of the charcoal.

For the next data set, the system named is gastric emptying. Description: Effect on gastric emptying (phenol red meal) in rats. Conditions: sacrificed 15 minutes after phenol red meal. It counts as in vivo, rat. How it is done: A compound of the invention was tested for its effect on gastric emptying according to the method described by C. Scarpignato et al. (Arch. Int. Pharmacodyn., 246, 286-294 [1980]). Thus, 1.5 ml of a 1.5% methyl cellulose solution comprising phenol red (0.5 mg/ml) was administered orally to Sprague Dawley rats weighing approximately 200 g and previously subjected to fasting. The animals were sacrificed after 15 minutes and the pylora and the esophagi were tied off. The contents of the stomachs were collected in a teflon beaker containing a solution of soda (100 ml at 0.1 N) and the mixture was homogenized. The proteins were precipitated by addition of 0.5 ml of a 20% aqueous solution of trifluoroacetic acid to a 5 ml portion of homogenate. After centrifuging, the part of the solution rising to the top was separated and added to 4.5 ml of an aqueous solution of soda at 0.5 N and the phenol red content was determined by using a spectrophotometer at a wavelength of 560 nm.
The compound to be tested was administered (s.c.) 15 minutes […] the administration of phenol red.

Description for 5-HT1A receptor: The affinity of the compounds for the 5-HT1A serotonergic receptors is determined by measuring the inhibition of [3H]8-hydroxy-2 (di-n-propylamino) tetralin([3H]8-OH-DPAT) connected with the cerebral cortex of the rat according to the method of Perutka et al. (J. Neurochem., 47,529 [1986]).
Cerebral cortices of male Sprague Dawley rats are homogenized in 50 mM Tris-HCl, pH—7.4, and centrifuged at 40,000 g for 10 min. at 4 degrees C. Pellets are put into suspension in the same buffer and incubated for 10 min. at 37 degrees C. and the homogenates are again centrifuged at 40,000 g for 10 min. at 4 degrees C.
Competitive inhibition tests of the bond of [3H]8-OH-DAPT are performed three times with unmarked competitors with concentrations ranging between 100 pM and 100 μM. Rat cerebral cortex membranes (10 mg by weight, moistened, per ml) are incubated with [3H]8-OH-DPAT (1 nM) for 30 min. at 25 deg. C. in Tris-HCl 50 mM, pH 7.4 comprising 4 mM of CaCl2, 10 μM of pargylin and 0.1% ascorbic acid.
The bonded [3H]8-OH-DPAT is separated from the free [3H]8-OH-DPAT by immediate filtration by means of Whatman GF/B fiberglass filters using a Brandel cell recoverer. The filters [filtrates?] are washed three times with the same buffer at 0-4 deg. C. and their radioactivity is determined by means of a liquid scintillation spectrometer.
The specific bond is obtained by subtracting the given bond in the presence of 1 μM of 8-OH-DPAT from the total bond. The bond characteristics are analyzed by interactive analysis of the nonlinear regression by computer using the Ligand program (Munson and Rodbard, Anal. Biochem., 107, 220 [1980]).

In the case of `Cc1nccn1CC1CCc2c(c3ccccc3n2C)C1=O` (stereo not drawn) [Ondansetron, reference compound], the “Percent Inhibition (vomiting)” value in data set [1] (0.5 mg/kg iv) was found to be 62%. For `COc1ccccc1OCCNCCCCNC(=O)C12CC3CC(CC(C3)C1)C2` [Compound No. 2, N-[4-{-2-(2-Methoxyphenoxy)ethyl}aminobutyl]-1-adamantamide], the pKi at 5-HT1A receptor is 10.00. In addition, the “ED50 (dose necessary for 50% inhibition of the acid secretion)” value in the data set with gastric acid secretion stood at 3.6 mg/kg i.d. The molecule `COc1ccccc1OCCNCCCCNC(=O)C1CCCCC1` (as salt: fumarate) [compound 34, N[4-{2-(2-methoxyphenoxy)ethyl}aminobutyl]cyclohexylamide] displayed a melting point of 134 to 136 °C. As to `COc1ccccc1OCCNCCCCNC(=O)CC(C)(C)C` [compound 33], the pKi at 5-HT1A receptor is 9.48. Turning to `COc1ccccc1OCCNCCCCNC(=O)C1CC2CCC1C2` (stereo not drawn) (as salt: fumarate) [compound 50, N[4-{2-(2-methoxyphenoxy)ethyl}aminobutyl]2-bicyclo[2,2,1]heptylamide], the melting point lay within 130 to 131 °C. On to `COc1ccccc1OCCNCCCCNC(=O)C1CCCCCC1` [compound 46, N[4-{2-(2-methoxyphenoxy)ethyl}aminobutyl]cycloheptylamide], for which the negative logarithm of the Ki (pKi) on 5-HT1A receptor was 10.03. For the molecule `COc1ccc2[nH]c([S+]([O-])Cc3ncc(C)c(OC)c3C)nc2c1` (stereo not drawn) [Omeprazole, reference compound], the “ED50 (dose necessary for 50% inhibition of the acid secretion)” value with gastric acid secretion is listed as 4.6 mg/kg i.d.

`COc1ccccc1OCCNCCCCNC(=O)c1ccc(F)cc1` [compound 23] showed a pKi on 5-HT1A receptor of 9.48. Regarding `COc1ccccc1OCCNCCCCNC(=O)c1cccc(I)c1` (as salt: salt) [compound 30], the melting point was 121 to 121.5 °C. On 5-HT1A receptor, `CCOc1ccccc1OCCNCCCCNC(=O)C(C)(C)C` [compound 64] showed a pKi of 9.11. The molecule `COc1ccccc1OCCNCCCCNC(=O)CC1CCCC1` (as salt: fumarate) [compound 59] gave a melting point of 118 to 119 °C. On the same count and under the same terms, under `COc1cccc(C(=O)NCCCCNCCOc2ccccc2OC)c1` (as salt: fumarate) [compound 14] stands 68 to 70 °C. `COc1ccccc1OCCNCCCCNC(=O)C1(C)CCCCC1` [compound 45] gave a pKi at 5-HT1A receptor of 9.85. Same read-out and setting: the value for `COc1ccccc1OCCNCCCCNC(=O)c1ccccn1` [compound 3] was 8.85; that for `COc1cccc(C(=O)NCCCCNCCOc2ccccc2OC)c1` [compound 14] was 8.80. `O=C(NCCCCNCCOc1ccccc1O)c1ccccc1` [compound 20, N[4-{2-(2-hydroxyphenoxy)ethyl}aminobutyl]benzamide] gave a pKi at 5-HT1A receptor of 9.64. For the same molecule, the “ED50 (dose necessary for 50% inhibition of the acid secretion)” value with gastric acid secretion was 3.1 mg/kg i.d. For the molecule `COc1ccccc1OCCNCCCCNC(=O)c1ccc(F)cc1` (as salt: salt) [compound 23], the melting point lay in the range of 119 to 120.5 °C. In turn, `COc1ccccc1OCCNCCCCNC(=O)C1CC2CCC1C2` (stereo not drawn) [compound 50, N[4-{2-(2-methoxyphenoxy)ethyl}aminobutyl]2-bicyclo[2,2,1]heptylamide] gave a negative logarithm of the Ki (pKi) on 5-HT1A receptor of 10.15.

Molecule `COc1ccccc1OCCNCCCCNC(=O)C1(C)CCCCC1` (as salt: fumarate) [compound 45] gave a melting point of 120 to 122 °C. Turning to `COc1ccccc1OCCNCCCCNC(=O)c1cccc(I)c1` [compound 30], the pKi at 5-HT1A receptor was 9.36. `COc1ccccc1OCCNCCCCNC(=O)CC(C)(C)C` (as salt: fumarate) [compound 33]: the melting point was 130 to 132 °C. Same read-out and setting: under `COc1ccccc1OCCNCCCCNC(=O)c1ccccn1` (as salt: salt) [compound 3] stands 152 to 154 °C. `CCN(CC)CCNC(=O)c1cc(Cl)c(N)cc1OC` [Metoclopramide, reference compound]: the “Percent Inhibition (vomiting)” value in data set [1] (1.0 mg/kg iv) was 15%. For the molecule `CNC(=O)c1ccccc1OCCNCCCCNC(=O)c1ccccc1` [Compound No. 18], the “ED50 (dose necessary for 50% inhibition of the acid secretion)” value in the data set with gastric acid secretion is 3.2 mg/kg i.d. In addition, in data set [1] (1.0 mg/kg iv), the “Percent Inhibition (vomiting)” value came out at 62%. Further, the “Charcoal Transit Time Compared to Control” value in the data set on intestinal transit (0.3 mg/kg s.c.) is reported as “+16%”; in the data set on intestinal transit (1.0 mg/kg s.c.), “+20%”. For the same molecule, the “Effect on Gastric Emptying Time Compared to Control” value is reported as “+8%” with gastric emptying (0.3 mg/kg s.c.), “+18%” in the data set with gastric emptying (1.0 mg/kg s.c.) and “+26%” in the data set on gastric emptying (3.0 mg/kg s.c.). `CCOc1ccccc1OCCNCCCCNC(=O)C(C)(C)C` (as salt: fumarate) [compound 64] showed a melting point of 131.5 to 133 °C. On to `COc1ccccc1OCCNCCCCNC(=O)C1CCCCC1` [compound 34, N[4-{2-(2-methoxyphenoxy)ethyl}aminobutyl]cyclohexylamide], for which, on 5-HT1A receptor, the pKi is 10.06. `COc1ccccc1OCCNCCCCNC(=O)c1ccccc1` [Compound No. 1, N-[4-{2-(2-Methoxyphenoxy)ethyl}aminobutyl]benzamide] gave a pKi at 5-HT1A receptor of 9.70. Moreover, in the data set with gastric acid secretion, the “ED50 (dose necessary for 50% inhibition of the acid secretion)” value is 3.7 mg/kg i.d. Also, the “Percent Inhibition (vomiting)” value in data set [1] (1.0 mg/kg iv) stood at 40%. In turn, `CSc1ccccc1OCCNCCCCNC(=O)c1ccccc1` [compound 11] had a pKi on 5-HT1A receptor of 9.15. In the case of `CN1CCN(CC(=O)N2c3ccccc3C(=O)Nc3cccnc32)CC1` [Pirenzepine, reference compound], the “ED50 (dose necessary for 50% inhibition of the acid secretion)” value in the data set with gastric acid secretion was determined as 14 mg/kg i.d. `COc1ccccc1OCCNCCCCNC(=O)CC1CCCC1` [compound 59]: the pKi at 5-HT1A receptor was 9.19. On to `COc1ccccc1OCCNCCCCNC(=O)C1CCCCCC1` (as salt: fumarate) [compound 46, N[4-{2-(2-methoxyphenoxy)ethyl}aminobutyl]cycloheptylamide], for which the melting point lay in the range of 125 to 126 °C. As to `CNC(=C[N+](=O)[O-])NCCSCc1ccc(CN(C)C)o1` [Ranitidine, reference compound], in the data set on gastric acid secretion, the “ED50 (dose necessary for 50% inhibition of the acid secretion)” value is given as 22 mg/kg i.d.

A word on the pKi: it is the negative decadic logarithm of the Ki, by convention in mol/L. A high value points to a small Ki. Usually melting point stands for the temperature, or range, at which the solid turns liquid.
